From US9695154B2, “Heteroaryl inhibitors of sumo activating enzyme” (MILLENNIUM PHARMACEUTICALS, INC., priority 2013, dated 2017) come the findings set out here.

The target in this experiment is T1, recombinant human SAE enzyme (Homo sapiens, UniProt Q9UBT2).
T1 sequence (Q9UBT2 1-640): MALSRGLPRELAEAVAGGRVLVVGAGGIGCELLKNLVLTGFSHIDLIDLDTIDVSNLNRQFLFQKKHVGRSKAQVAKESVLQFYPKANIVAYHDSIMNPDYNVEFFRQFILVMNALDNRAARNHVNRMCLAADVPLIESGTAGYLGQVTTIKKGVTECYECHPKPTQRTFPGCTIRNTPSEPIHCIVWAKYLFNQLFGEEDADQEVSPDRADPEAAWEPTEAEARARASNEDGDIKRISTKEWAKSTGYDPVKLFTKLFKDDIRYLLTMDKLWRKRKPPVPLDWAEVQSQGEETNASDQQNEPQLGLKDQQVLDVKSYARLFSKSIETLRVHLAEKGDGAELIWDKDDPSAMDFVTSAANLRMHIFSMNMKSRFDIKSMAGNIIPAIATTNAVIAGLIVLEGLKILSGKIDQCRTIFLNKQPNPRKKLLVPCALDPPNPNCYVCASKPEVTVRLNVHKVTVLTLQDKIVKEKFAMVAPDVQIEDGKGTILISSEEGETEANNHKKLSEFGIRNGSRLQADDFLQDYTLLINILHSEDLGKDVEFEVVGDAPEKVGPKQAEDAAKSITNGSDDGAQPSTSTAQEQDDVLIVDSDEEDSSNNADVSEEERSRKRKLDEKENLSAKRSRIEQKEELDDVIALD
T1 sequence (Q9UBE0 1-346 partner): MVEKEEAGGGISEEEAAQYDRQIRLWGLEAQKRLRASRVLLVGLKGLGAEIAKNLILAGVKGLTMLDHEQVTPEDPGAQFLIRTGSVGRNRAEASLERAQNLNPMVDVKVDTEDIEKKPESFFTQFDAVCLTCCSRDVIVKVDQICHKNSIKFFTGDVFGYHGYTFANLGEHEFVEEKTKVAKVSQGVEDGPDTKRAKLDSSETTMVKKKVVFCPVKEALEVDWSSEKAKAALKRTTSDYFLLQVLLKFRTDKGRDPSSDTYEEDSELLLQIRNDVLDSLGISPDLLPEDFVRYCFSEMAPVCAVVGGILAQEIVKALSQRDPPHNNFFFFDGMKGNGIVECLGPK
Kind of experiment: SAE HTRF Enzyme Assay. The experiment is classed as biochemical. Particulars: for IC50: class symbols A-C; for inhibition at 0.111 µM: compound concentration 0.111 μM, read-out: Percent Inhibition. Put shortly: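 SAE 0.11 nM; ATP 0.5 μM; Sumo-Flag 0.125 μM; Ubc9-GST 0.01 μM; 250 μM GSH, 5 mM MgCl2, pH 7.5. 105 min, 24° C. EDTA/KF stop plus Eu/APC antibodies, 2 h, TR-FRET. % inhibition or IC50.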
(In general: In TR-FRET formats the signal depends on donor and acceptor labels being close together.)

As a reminder, the IC50 is the point on the concentration scale where inhibition reaches its midpoint. A word on the inhibition: it is the percentage by which the read-out fell short of the control. For the compound `NS(=O)(=O)OC[C@H]1C[C@@H](Nc2ncncc2C(=O)c2ccn(C3(c4cccc(Cl)c4)CC3)c2)C[C@@H]1O` [Compound I-264, [(1R,2S,4R)-4-{[5-({1-[1-(3-Chlorophenyl)cyclopropyl]-1H-pyrrol-3-yl}carbonyl)pyrimidin-4-yl]amino}-2-hydroxycyclopentyl]methyl sulfamate], the IC50 was 10 to 100 nM and the inhibition at 0.111 µM was 90%.

Consider `NS(=O)(=O)OC[C@H]1C[C@@H](Nc2ncncc2C(=O)c2ccn(Cc3ccc(OC(F)(F)F)cc3)n2)[C@H](O)[C@@H]1O` [Compound I-265, [(1R,2R,3S,4R)-2,3-dihydroxy-4-{[5-({1-[4-(trifluoromethoxy)benzyl]-1H-pyrazol-3-yl}carbonyl)pyrimidin-4-yl]amino}cyclopentyl]methyl sulfamate], for which the IC50 was less than 10 nM and the inhibition at 0.111 µM is 95%.

Consider `NS(=O)(=O)OC[C@H]1C[C@@H](Nc2ncncc2C(=O)c2ccn(Cc3ccc(C(F)(F)F)cc3C(F)(F)F)n2)[C@H](O)[C@@H]1O` [Compound I-266, [(1R,2R,3S,4R)-4-{[5-({1-[2,4-bis(trifluoromethyl)benzyl]-1H-pyrazol-3-yl}carbonyl)pyrimidin-4-yl]amino}-2,3-dihydroxycyclopentyl]methyl sulfamate], for which the IC50 fell in the range of 10 to 100 nM and the inhibition at 0.111 µM amounted to 87%.

`NS(=O)(=O)OC[C@H]1C[C@@H](Nc2ncncc2C(=O)c2ccn(Cc3cc(C(F)(F)F)ccc3C(F)(F)F)n2)[C@H](O)[C@@H]1O` [Compound I-267, [(1R,2R,3S,4R)-4-{[5-({1-[2,5-bis(trifluoromethyl)benzyl]-1H-pyrazol-3-yl}carbonyl)pyrimidin-4-yl]amino}-2,3-dihydroxycyclopentyl]methyl sulfamate]: the half-inhibitory concentration (IC50) was less than 10 nM and the inhibition at 0.111 µM worked out at 97%.

As to `NS(=O)(=O)OC[C@H]1C[C@@H](Nc2ncncc2C(=O)c2ccn(Cc3cc(C(F)(F)F)ccc3Cl)n2)[C@H](O)[C@@H]1O` [Compound I-268, [(1R,2R,3S,4R)-4-{[5-({1-[2-chloro-5-(trifluoromethyl)benzyl]-1H-pyrazol-3-yl}carbonyl)pyrimidin-4-yl]amino}-2,3-dihydroxycyclopentyl]methyl sulfamate], the half-maximal inhibitory concentration (IC50) was less than 10 nM and the inhibition at 0.111 µM turned out to be 99%.

For `NS(=O)(=O)OC[C@H]1C[C@@H](Nc2ncncc2C(=O)c2ccn(Cc3cc(F)cc(F)c3)n2)[C@H](O)[C@@H]1O` [Compound I-269, {(1R,2R,3S,4R)-4-[(5-{[1-(3,5-difluorobenzyl)-1H-pyrazol-3-yl]carbonyl}pyrimidin-4-yl)amino]-2,3-dihydroxycyclopentyl}methyl sulfamate], the IC50 was less than 10 nM and the inhibition at 0.111 µM came out at 96%.

With `NS(=O)(=O)OC[C@H]1C[C@@H](Nc2ncncc2C(=O)c2ccn(Cc3cccc(C4(O)COC4)c3)n2)C[C@@H]1O` [Compound I-270, [(1R,2S,4R)-2-hydroxy-4-{[5-{{1-[3-(3-hydroxyoxetan-3-yl)benzyl]-1H-pyrazol-3-yl}carbonyl)pyrimidin-4-yl]amino}cyclopentyl]methyl sulfamate], the half-maximal inhibitory concentration (IC50) was 10 to 100 nM and the inhibition at 0.111 µM worked out at 87%.

Turning to `NS(=O)(=O)OC[C@H]1C[C@@H](Nc2ncncc2C(=O)c2ccn(Cc3cccc(OC(F)(F)F)c3)c2)C[C@@H]1O` [Compound I-271, [(1R,2S,4R)-2-hydroxy-4-{[5-({1-[3-(trifluoromethoxy)benzyl]-1H-pyrrol-3-yl}carbonyl)pyrimidin-4-yl]amino}cyclopentyl]methyl sulfamate], the IC50 was less than 10 nM and the inhibition at 0.111 µM was determined as 97%.

In the case of `NS(=O)(=O)OC[C@H]1C[C@@H](Nc2ncncc2C(=O)c2cc(Br)n(Cc3cccc(Br)c3)c2)[C@@H](F)[C@@H]1O` [Compound I-272, {(1R,2R,3R,4R)-4-[(5-{[5-bromo-1-(3-bromobenzyl)-1H-pyrrol-3-yl]carbonyl}pyrimidin-4-yl)amino]-3-fluoro-2-hydroxycyclopentyl}methyl sulfamate], the IC50 is less than 10 nM and the inhibition at 0.111 µM was 99%.

Regarding `NS(=O)(=O)OC[C@H]1C[C@@H](Nc2ncncc2C(=O)c2ccn(Cc3ccc(F)c4ccccc34)n2)[C@H](O)[C@@H]1O` [Compound I-273, [(1R,2R,3S,4R)-4-{[5-({1-[(4-fluoro-1-naphthyl)methyl]-1H-pyrazol-3-yl}carbonyl)pyrimidin-4-yl]amino}-2,3-dihydroxycyclopentyl]methyl sulfamate], the IC50 is less than 10 nM and the inhibition at 0.111 µM was determined as 98%.

As for `NS(=O)(=O)OC[C@H]1C[C@@H](Nc2ncncc2C(=O)c2ccn(Cc3ccc(C(F)(F)F)o3)c2)C[C@@H]1O` [Compound I-274, [(1R,2S,4R)-2-hydroxy-4-({5-[(1-{[5-(trifluoromethyl)-2-furyl]methyl}-1H-pyrrol-3-yl)carbonyl]pyrimidin-4-yl}amino)cyclopentyl]methyl sulfamate], the IC50 is less than 10 nM and the inhibition at 0.111 µM was 97%.

Regarding `NS(=O)(=O)OC[C@H]1C[C@@H](Nc2ncncc2C(=O)c2ccn(CC#CC3(O)COC3)n2)C[C@@H]1O` [Compound I-275, [(1R,2S,4R)-2-hydroxy-4-{[5-({1-[3-(3-hydroxyoxetan-3-yl)prop-2-yn-1-yl]-1H-pyrazol-3-yl}carbonyl)pyrimidin-4-yl]amino}cyclopentyl]methyl sulfamate], the IC50 was in the range of 100 to 1000 nM and the inhibition at 0.111 µM is 18%.

As to `NS(=O)(=O)OC[C@H]1C[C@@H](Nc2ncncc2C(=O)c2ccn(Cc3ccc(OC(F)(F)F)cc3)n2)C[C@@H]1O` [Compound I-276, [(1R,2S,4R)-2-hydroxy-4-{[5-({1-[4-(trifluoromethoxy)benzyl]-1H-pyrazol-3-yl}carbonyl)pyrimidin-4-yl]amino}cyclopentyl]methyl sulfamate], the IC50 lay in the range of 10 to 100 nM and the inhibition at 0.111 µM was determined as 82%.

Consider `Cc1ccc(Cn2ccc(C(=O)c3cncnc3N[C@@H]3C[C@H](COS(N)(=O)=O)[C@@H](O)[C@@H]3F)c2)o1` [Compound I-277, [(1R,2R,3R,4R)-3-fluoro-2-hydroxy-4-{[5-({1-[(5-methyl-2-furyl)methyl]-1H-pyrrol-3-yl}carbonyl)pyrimidin-4-yl]amino}cyclopentyl]methyl sulfamate], for which the IC50 was less than 10 nM and the inhibition at 0.111 µM worked out at 99%.

For the compound `NS(=O)(=O)OC[C@H]1C[C@@H](Nc2ncncc2C(=O)c2ccn(Cc3cccc(-c4ccccc4)c3)n2)[C@H](O)[C@@H]1O` [Compound I-278, {(1R,2R,3S,4R)-4-[(5-{[1-(biphenyl-3-ylmethyl)-1H-pyrazol-3-yl]carbonyl}pyrimidin-4-yl)amino]-2,3-dihydroxycyclopentyl}methyl sulfamate], the IC50 is less than 10 nM and the inhibition at 0.111 µM is 97%.

For the compound `NS(=O)(=O)OC[C@H]1C[C@@H](Nc2ncncc2C(=O)c2ccn(Cc3ccc(F)c(Br)c3)c2)C[C@@H]1O` [Compound I-279, {(1R,2S,4R)-4-[(5-{[1-(3-bromo-4-fluorobenzyl)-1H-pyrrol-3-yl]carbonyl}pyrimidin-4-yl)amino]-2-hydroxycyclopentyl}methyl sulfamate], the IC50 is less than 10 nM and the inhibition at 0.111 µM was determined as 98%.

With `NS(=O)(=O)OC[C@H]1C[C@@H](Nc2ncncc2C(=O)c2ccn(Cc3ccc(Cl)s3)n2)C[C@@H]1O` [Compound I-280, [(1R,2S,4R)-4-{[5-({1-[(5-chloro-2-thienyl)methyl]-1H-pyrazol-3-yl}carbonyl)pyrimidin-4-yl]amino}-2-hydroxycyclopentyl]methyl sulfamate], the half-inhibitory concentration (IC50) was less than 10 nM and the inhibition at 0.111 µM amounted to 99%.

For the compound `CSCn1ccc(C(=O)c2cncnc2N[C@@H]2C[C@H](COS(N)(=O)=O)[C@@H](O)C2)n1` [Compound I-281, [(1R,2S,4R)-2-hydroxy-4-{[5-({1-[(methylsulfanyl)methyl]-1H-pyrazol-3-yl}carbonyl)pyrimidin-4-yl]amino}cyclopentyl]methyl sulfamate], the IC50 lay in the range of 100 to 1000 nM and the inhibition at 0.111 µM was 25%.

On to `NS(=O)(=O)OC[C@H]1C[C@@H](Nc2ncncc2C(=O)c2ccn(Cc3cccc(Br)c3F)n2)C[C@@H]1O` [Compound I-282, {(1R,2S,4R)-4-[(5-{[1-(3-bromo-2-fluorobenzyl)-1H-pyrazol-3-yl]carbonyl}pyrimidin-4-yl)amino]-2-hydroxycyclopentyl}methyl sulfamate], for which the IC50 was less than 10 nM and the inhibition at 0.111 µM turned out to be 100%.
